Data taken from ChEMBL document CHEMBL4354808, “Drugs for the Treatment of Zika Virus Infection” (J Med Chem, 2020).
≈ marks a conversion by molar mass, not a printed value.

How the values were obtained:
Zika virus [1] = assay: Antiviral activity against Zika virus PLCal_ZV infected in African green monkey Vero cells assessed as reduction in viral titer after 1 hr by plaque assay; assay type: functional, organism-based
Zika virus [2] = assay: Antiviral activity against Zika virus PLCal_ZV infected in human Neural progenitor cells; assay type: functional, organism-based
Nonstructural protein 3 [3] = target: T1, Nonstructural protein 3 (Zika virus, UniProt A0A024AXB9); assay: Inhibition of Zika virus NS2B (1421 to 1469 residues) - NS3 (1503 to 1688 residues) expressed in Escherichia coli BL21(DE3) cells using Dabcyl-KTSAVLQSGFRKME-Edans as substrate after 11 mins by FRET assay
T1 sequence (A0A024AXB9 whole entry, the tested form may be a part): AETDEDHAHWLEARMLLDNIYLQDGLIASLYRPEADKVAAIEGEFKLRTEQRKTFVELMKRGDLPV

[4] = Cytotoxicity against African green monkey Vero cells by MTT assay; assay type: cell-based; conditions: chlorocebus sabaeus
[5] = Cytotoxicity against HEK293 cells; assay type: cell-based; conditions: human
[6] = Cytotoxicity against human SNB19 cells; assay type: cell-based; conditions: SNB-19 cells
Zika virus [7] = assay: Antiviral activity against Zika virus MR766 infected in African green monkey Vero cells by plaque assay; assay type: functional, organism-based
[8] = Cytotoxicity against BHK21 cells after 24 to 48 hrs by CCK8 assay; assay type: cell-based, Mesocricetus auratus; conditions: hamster, BHK-21 cells
Nonstructural protein 3 [9] = target: T1, Nonstructural protein 3; assay: Inhibition of Zika virus Asian/8375 NS2B (48 to 100 residues)-NS3 (14 to 185 residues) expressed in Escherichia coli BL21 (DE3) Star cells preincubated for 30 mins followed by Bz-nKRR-AMC substrate addition
[10] = Cytotoxicity against human HuH7 cells by MTT assay; assay type: cell-based; conditions: Huh-7 cells
[11] = Cytotoxicity against African green monkey Vero cells; assay type: cell-based; conditions: chlorocebus sabaeus
NS5 [12] = target: T2, NS5 (Zika virus, UniProt A0A143MHK7); assay: Inhibition of Zika virus MTase (4 to 278 residues) expressed in Escherichia coli T7 using GpppAC4 as substrate in presence of [3H]SAM incubated for 30 mins by liquid scintillation counter method
T2 sequence (A0A143MHK7 whole entry, the tested form may be a part): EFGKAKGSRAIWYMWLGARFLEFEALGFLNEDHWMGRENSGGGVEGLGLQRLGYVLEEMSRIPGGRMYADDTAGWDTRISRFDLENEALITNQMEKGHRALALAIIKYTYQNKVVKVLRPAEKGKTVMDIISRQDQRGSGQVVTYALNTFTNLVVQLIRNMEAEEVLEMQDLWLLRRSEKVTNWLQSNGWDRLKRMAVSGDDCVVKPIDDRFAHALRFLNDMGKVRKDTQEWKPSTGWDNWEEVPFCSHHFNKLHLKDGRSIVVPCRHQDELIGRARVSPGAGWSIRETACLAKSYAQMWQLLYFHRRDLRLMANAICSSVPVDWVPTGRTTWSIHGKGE

NS5 [13] = target: T2, NS5; assay: Inhibition of Zika virus MTase (4 to 278 residues) expressed in Escherichia coli T7 using A27 RNA as substrate in presence of [3H]SAM incubated for 30 mins by liquid scintillation counter method
[14] = Cytotoxicity against human Neural progenitor cells; assay type: cell-based
[15] = Cytotoxicity against African green monkey Vero cells by visual method; assay type: cell-based; conditions: chlorocebus sabaeus

SMILES: CCN(CC)Cc1cc(Nc2ccnc3cc(Cl)ccc23)ccc1O [AMODIAQUINE]
- EC50 (Zika virus [1]): 2.8 to 4.4 µM
- EC50 (Zika virus [2]): 2.8 to 4.4 µM

SMILES: O=c1c(O[C@@H]2O[C@H](CO)[C@@H](O)[C@H](O)[C@H]2O)c(-c2ccc(O)cc2)oc2cc(O)cc(O)c12 [ASTRAGALIN]
- IC50 (Nonstructural protein 3 [3]): 112 µM

SMILES: CC(C)C[C@H]1C(=O)N2CCC[C@H]2[C@]2(O)O[C@](NC(=O)[C@@H]3C=C4c5cccc6[nH]c(Br)c(c56)C[C@H]4N(C)C3)(C(C)C)C(=O)N12 [BROMOCRIPTINE]
- CC50 [4]: > 40 µM

SMILES: CC[C@H]1CN2CCc3cc(OC)c(OC)cc3[C@@H]2C[C@@H]1C[C@H]1NCCc2cc(OC)c(OC)cc21 [EMETINE]
- CC50 [5]: 0.18 µM
- CC50 [6]: 0.086 µM

SMILES: O=C(O[C@@H]1Cc2c(O)cc(O)cc2O[C@@H]1c1ccc(O)c(O)c1)c1cc(O)c(O)c(O)c1 [EPICATECHIN GALLATE]
- IC50 (Nonstructural protein 3 [3]): 89 µM

SMILES: O=C(O[C@@H]1Cc2c(O)cc(O)cc2O[C@@H]1c1cc(O)c(O)c(O)c1)c1cc(O)c(O)c(O)c1 [EPIGALOCATECHIN GALLATE]
- IC50 (Nonstructural protein 3 [3]): 87 µM

SMILES: O=C(O[C@@H]1Cc2c(O)cc(O)cc2O[C@H]1c1cc(O)c(O)c(O)c1)c1cc(O)c(O)c(O)c1 [GALLOCATECHIN GALLATE]
- IC50 (Nonstructural protein 3 [3]): 99 µM

SMILES: CC(C)(C)NCc1ccc(Nc2ccnc3cc(Cl)ccc23)cc1O [GSK-369796]
- EC50 (Zika virus [7]): 2.57 µM
- CC50 [8]: 98 µM

SMILES: O=c1cc(-c2ccc(O)c(O)c2)oc2cc(O)cc(O)c12 [LUTEOLIN]
- IC50 (Nonstructural protein 3 [3]): 53 µM

SMILES: O=c1c(O)c(-c2cc(O)c(O)c(O)c2)oc2cc(O)cc(O)c12 [MYRICETIN]
- IC50 (Nonstructural protein 3 [3]): 22 µM
- IC50 (Nonstructural protein 3 [9]): 1.3 µM
- Ki (Nonstructural protein 3 [9]): 0.8 µM

SMILES: CO[C@@H]1[C@@H](OC(N)=O)[C@@H](O)[C@H](Oc2ccc3c(O)c(NC(=O)c4ccc(O)c(CC=C(C)C)c4)c(=O)oc3c2C)OC1(C)C [NOVOBIOCIN]
- CC50 [4]: 850 µg/mL
- CC50 [10]: 1100 µg/mL (≈ 1800 µM)

SMILES: CCN(CC)CCCC(C)Nc1c2ccc(Cl)cc2nc2ccc(OC)cc12 (stereo unspecified) [QUINACRINE]
- EC50 (Zika virus [7]): 2.27 µM
- CC50 [8]: 18.6 µM

SMILES: NC(=O)c1ncn([C@@H]2O[C@H](CO)[C@@H](O)[C@H]2O)n1 [RIBAVIRIN]
- CC50 [11]: > 100 µM

SMILES: C[C@@H]1O[C@@H](OC[C@H]2O[C@@H](Oc3c(-c4ccc(O)c(O)c4)oc4cc(O)cc(O)c4c3=O)[C@H](O)[C@@H](O)[C@@H]2O)[C@H](O)[C@H](O)[C@H]1O [RUTIN]
- IC50 (Nonstructural protein 3 [3]): 104 µM

SMILES: Nc1ncnc2c1ncn2[C@@H]1O[C@H](C[C@@H](N)CC[C@H](N)C(=O)O)[C@@H](O)[C@H]1O [SINEFUNGIN]
- IC50 (NS5 [12]): 1.18 µM
- IC50 (NS5 [13]): 1.62 µM

SMILES: CC(C)OC(=O)[C@H](C)N[P@](=O)(OC[C@H]1O[C@@H](n2ccc(=O)[nH]c2=O)[C@](C)(F)[C@@H]1O)Oc1ccccc1 [SOFOSBUVIR]
- CC50 [11]: 360 to 512 µM
- CC50 [14]: 360 to 512 µM

SMILES: Nc1ncnc2c1ccn2[C@@H]1O[C@H](CO)[C@@H](O)[C@H]1O [TUBERCIDIN]
- CC50 [15]: > 357 µM
